Data set [1] can be described thus: Octanol/buffer partition coefficient, log D of the compound at pH 7.4 by shake-flask method. Type of data set: physicochemical.
Data set [2] concerns the target T1, Protein cereblon/Interleukin-1 receptor-associated kinase 3 (Homo sapiens, UniProt Q9Y616+Q96SW2). In words: Protac activity at CRBN/IRAK3 in LPS-induced human THP1 cells assessed as induction of IRAK3 degradation at 1 uM by Western blot analysis relative to control. The following applies: THP-1. In kind it is cell-based. (In general: A western blot detects proteins with antibodies after separation by electrophoresis.)
Target sequence in this assay (Q96SW2 whole entry, looked up, one chain of several): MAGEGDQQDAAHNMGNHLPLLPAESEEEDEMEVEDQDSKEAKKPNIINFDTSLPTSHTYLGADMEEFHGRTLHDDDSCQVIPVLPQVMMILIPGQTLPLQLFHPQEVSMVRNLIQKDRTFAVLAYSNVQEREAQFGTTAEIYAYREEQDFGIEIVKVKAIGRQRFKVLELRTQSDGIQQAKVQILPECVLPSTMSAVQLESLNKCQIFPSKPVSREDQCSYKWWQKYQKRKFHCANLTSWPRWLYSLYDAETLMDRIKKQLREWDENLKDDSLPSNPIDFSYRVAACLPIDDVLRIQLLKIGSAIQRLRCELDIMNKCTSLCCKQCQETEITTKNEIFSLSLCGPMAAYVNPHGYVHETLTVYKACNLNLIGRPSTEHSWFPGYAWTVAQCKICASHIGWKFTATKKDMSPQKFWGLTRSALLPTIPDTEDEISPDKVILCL

The target of data set [3] is T2, Interleukin-1 receptor-associated kinase 4 (Homo sapiens, UniProt Q9NWZ3).
T2 sequence (Q9NWZ3 whole entry): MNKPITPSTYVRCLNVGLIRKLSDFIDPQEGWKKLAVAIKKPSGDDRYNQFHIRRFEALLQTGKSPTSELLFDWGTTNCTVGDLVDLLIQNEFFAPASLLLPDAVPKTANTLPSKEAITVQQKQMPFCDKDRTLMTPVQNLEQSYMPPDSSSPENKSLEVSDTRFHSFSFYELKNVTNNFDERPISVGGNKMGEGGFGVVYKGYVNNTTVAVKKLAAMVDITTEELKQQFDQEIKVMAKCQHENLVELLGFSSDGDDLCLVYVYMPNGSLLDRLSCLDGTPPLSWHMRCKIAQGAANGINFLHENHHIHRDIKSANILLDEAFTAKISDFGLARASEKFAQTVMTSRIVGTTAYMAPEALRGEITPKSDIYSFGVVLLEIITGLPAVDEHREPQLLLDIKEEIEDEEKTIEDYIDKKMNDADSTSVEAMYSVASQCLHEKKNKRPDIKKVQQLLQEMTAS
Nature of the data set: Inhibition of recombinant human full-length His-tagged IRAK4 expressed in baculovirus expression system using 5-FAM-IPTSPITTTYFFFKKK-COOH as substrate measured after 240 mins by mobility shift assay.

Data set [4] has as its target T1, Protein cereblon/Interleukin-1 receptor-associated kinase 3. In words: Protac activity at CRBN/IRAK3 in LPS-induced human THP1 cells assessed as induction of IRAK3 degradation at 10 uM by Western blot analysis relative to control. Type of data set: cell-based. The conditions noted are these: THP-1.
Target sequence in this assay (Q96SW2 whole entry, looked up, one chain of several): as the sequence (Q96SW2 whole entry, looked up, one chain of several) above
Data set [5] has as its target T3, Interleukin-1 receptor-associated kinase 3 (Homo sapiens, UniProt Q9Y616).
T3 sequence (Q9Y616 whole entry): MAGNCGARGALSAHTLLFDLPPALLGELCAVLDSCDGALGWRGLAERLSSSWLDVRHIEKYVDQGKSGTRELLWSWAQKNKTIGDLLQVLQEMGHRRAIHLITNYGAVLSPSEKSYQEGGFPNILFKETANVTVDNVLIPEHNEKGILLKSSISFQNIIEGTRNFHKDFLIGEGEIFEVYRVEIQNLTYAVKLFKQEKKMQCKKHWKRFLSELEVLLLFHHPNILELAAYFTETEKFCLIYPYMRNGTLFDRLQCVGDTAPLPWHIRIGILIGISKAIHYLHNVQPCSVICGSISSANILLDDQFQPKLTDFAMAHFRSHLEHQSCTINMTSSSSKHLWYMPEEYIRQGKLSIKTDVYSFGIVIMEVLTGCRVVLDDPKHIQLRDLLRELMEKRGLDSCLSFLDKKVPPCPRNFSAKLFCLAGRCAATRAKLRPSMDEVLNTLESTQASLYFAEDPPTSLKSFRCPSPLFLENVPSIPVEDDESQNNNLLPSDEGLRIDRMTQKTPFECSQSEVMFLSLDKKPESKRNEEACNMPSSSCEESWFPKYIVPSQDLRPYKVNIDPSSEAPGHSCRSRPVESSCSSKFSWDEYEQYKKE
In words: Inhibition of kinase tracer 236 binding to recombinant human full-length GST-tagged IRAK3 expressed in insect cells by Lanthascreen Eu kinase binding assay. In general terms: TR-FRET usually uses a lanthanide donor and a delayed reading to cut background.

Data set [6] has as its target T4, von Hippel-Lindau disease tumor suppressor/Interleukin-1 receptor-associated kinase 3 (Homo sapiens) (UniProt Q9Y616+P40337). Nature of the data set: Protac activity at VHL/IRAK3 in LPS-induced human THP1 cells assessed as induction of IRAK3 degradation at 1 uM by Western blot analysis relative to control. Type of data set: cell-based. The following applies: THP-1.

The target in data set [7] is T4, von Hippel-Lindau disease tumor suppressor/Interleukin-1 receptor-associated kinase 3 (Homo sapiens). Nature of the data set: Protac activity at VHL/IRAK3 in LPS-induced human THP1 cells assessed as induction of IRAK3 degradation at 10 uM by Western blot analysis relative to control. In kind it is cell-based. The conditions noted are these: THP-1.
Data set [8] concerns the target Interleukin-1 receptor-associated kinase 1 (Homo sapiens, UniProt P51617). In words: Inhibition of recombinant human N-terminal GST-tagged IRAK1 (194 to 712 residues) expressed in baculovirus expression system using 5-FAM-KKKVSRSGLYRSPSMPENLNRPR-COOH as substrate measured after 240 mins by mobility shift assay.
Data set [9] concerns the target T1, Protein cereblon/Interleukin-1 receptor-associated kinase 3. Nature of the data set: Protac activity at CRBN/IRAK3 in LPS-induced human THP1 cells assessed as induction of IRAK3 degradation after 16 hrs by Western blot analysis. In kind it is cell-based. The following applies: thp-1.
Target sequence in this assay (Q96SW2 whole entry, one chain of several): as the sequence (Q96SW2 whole entry, looked up, one chain of several) above
For data set [10] the target is unchanged. Nature of the data set: Protac activity at CRBN/IRAK3 in LPS-induced human THP1 cells assessed as induction of IRAK3 degradation after 16 hrs by Western blot analysis relative to control. Type of data set: cell-based. The following applies: THP-1.
Target sequence in this assay (Q96SW2 whole entry, looked up, one chain of several): as the sequence (Q96SW2 whole entry, looked up, one chain of several) above
Another data set addresses Protein cereblon (Homo sapiens, UniProt Q96SW2). In words: Inhibition of CRBN (unknown origin).

T4 sequence (P40337 whole entry, looked up, one chain of several): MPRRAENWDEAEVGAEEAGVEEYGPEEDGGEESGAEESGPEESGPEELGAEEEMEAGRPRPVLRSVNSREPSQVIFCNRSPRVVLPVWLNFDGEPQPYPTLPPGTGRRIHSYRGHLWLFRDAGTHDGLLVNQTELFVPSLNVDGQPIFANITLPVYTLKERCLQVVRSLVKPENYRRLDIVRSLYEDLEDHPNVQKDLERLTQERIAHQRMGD
Chain of Protein cereblon (Q96SW2 whole entry): as the sequence (Q96SW2 whole entry, looked up, one chain of several) above
Chain of Interleukin-1 receptor-associated kinase 1 (P51617 whole entry, the tested form may be a part): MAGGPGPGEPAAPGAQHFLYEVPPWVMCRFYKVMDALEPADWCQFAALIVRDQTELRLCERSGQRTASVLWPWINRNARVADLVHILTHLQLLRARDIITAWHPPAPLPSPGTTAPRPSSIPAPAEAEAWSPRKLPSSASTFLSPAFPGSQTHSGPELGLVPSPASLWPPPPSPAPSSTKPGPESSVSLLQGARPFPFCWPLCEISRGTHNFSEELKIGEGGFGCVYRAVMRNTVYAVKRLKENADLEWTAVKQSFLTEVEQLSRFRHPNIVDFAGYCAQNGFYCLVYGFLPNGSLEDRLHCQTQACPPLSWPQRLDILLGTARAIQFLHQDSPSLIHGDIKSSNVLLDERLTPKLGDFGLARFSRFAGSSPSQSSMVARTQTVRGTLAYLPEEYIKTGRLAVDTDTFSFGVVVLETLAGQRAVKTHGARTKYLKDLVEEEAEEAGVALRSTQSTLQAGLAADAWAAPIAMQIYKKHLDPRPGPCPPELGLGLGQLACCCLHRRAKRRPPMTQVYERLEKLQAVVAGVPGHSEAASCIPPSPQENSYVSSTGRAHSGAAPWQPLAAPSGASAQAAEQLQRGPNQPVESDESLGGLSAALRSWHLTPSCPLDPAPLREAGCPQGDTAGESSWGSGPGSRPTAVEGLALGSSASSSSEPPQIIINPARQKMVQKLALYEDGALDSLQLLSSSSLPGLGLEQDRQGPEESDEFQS

In turn, `CC(C)c1ccn2ncnc(N[C@H]3CC[C@@H](N4CCN(C(=O)CCOCCOCCOCCOCCNc5cccc6c5C(=O)N(C5CCC(=O)NC5=O)C6=O)CC4)CC3)c12` (stereo partly specified) came in with a pH-dependent lipophilicity (logD) in data set [1] of 2.2. The Activity in data set [2] is 48%; in data set [4], 27%. For the same compound, the half-inhibitory concentration (IC50) in [3] was over 10000 nM; in data set [5], 50 nM.

In the case of `CC(C)c1ccn2ncnc(N[C@H]3CC[C@@H](N4CCN(C(=O)CCC(=O)NCCOCCOCCNc5cccc6c5C(=O)N(C5CCC(=O)NC5=O)C6=O)CC4)CC3)c12` (stereo partly specified), in [1], the logD is 2.3. Further, the Activity in data set [2] was determined as 17%; in [4], 13%. The IC50 in data set [3] is 4900 nM; in [5], 10 nM.

For `Cc1ncsc1-c1ccc(CNC(=O)[C@@H]2C[C@@H](O)CN2C(=O)[C@@H](NC(=O)COCCOCCOCCOCCOCC(=O)N2CCN([C@H]3CC[C@@H](Nc4ncnn5ccc(C(C)C)c45)CC3)CC2)C(C)(C)C)cc1`, the Activity in data set [6] was 21%; in data set [7] it was 67%. Further, the concentration for half-maximal inhibition (IC50) in [5] came to 51 nM.

`CC(C)c1ccn2ncnc(N[C@H]3CC[C@@H](N4CCN(C(=O)CCC(=O)N5CCC(CN6CCN(c7ccc8c(c7)C(=O)N(C7CCC(=O)NC7=O)C8=O)CC6)CC5)CC4)CC3)c12` (stereo partly specified) showed a logD in data set [1] of 3.1. Also, the IC50 in data set [3] is 5600 nM; in [8], 5600 nM; in data set [5], 6 nM; at Protein cereblon, 1200 nM. Moreover, in data set [9], the DC50 is 52 nM. Besides, in data set [10], the Emax amounted to 74%.

Compound `Cc1ncsc1-c1ccc(CNC(=O)[C@@H]2C[C@@H](O)CN2C(=O)[C@@H](NC(=O)COCCOCCOCCOCC(=O)N2CCN([C@H]3CC[C@@H](Nc4ncnn5ccc(C(C)C)c45)CC3)CC2)C(C)(C)C)cc1` returned a logD in [1] of 3.2. For the same compound, the Activity came out at 25% in data set [6] and 62% in data set [7]. For the same compound, the figures for the IC50 in data set [3] and in [5] were over 10000 nM and 21 nM, respectively.

For `CC(C)c1ccn2ncnc(N[C@H]3CC[C@@H](N4CCN(C(=O)CCC(=O)NCCOCCOCCOCCNc5cccc6c5C(=O)N(C5CCC(=O)NC5=O)C6=O)CC4)CC3)c12` (stereo partly specified), the pH-dependent lipophilicity (logD) in data set [1] was 2.1. In addition, the values for the Activity in data set [2] and in data set [4] were 42% and 34%, respectively. Further, the figures for the IC50 in [3] and in data set [5] were over 1000 nM and 21 nM, respectively.

Consider `Cc1ncsc1-c1ccc(CNC(=O)[C@@H]2C[C@@H](O)CN2C(=O)[C@@H](NC(=O)CCCCCCNC(=O)CCC(=O)N2CCN([C@H]3CC[C@@H](Nc4ncnn5ccc(C(C)C)c45)CC3)CC2)C(C)(C)C)cc1`, for which, in data set [1], the logD was over 3. The Activity in data set [6] and in [7] was 0% in each case. Besides, the results for the IC50 in data set [3] and in [5] were over 1000 nM and 6 nM, respectively.

`Cc1ncsc1-c1ccc(CNC(=O)[C@@H]2C[C@@H](O)CN2C(=O)[C@@H](NC(=O)COCCOCCOCCNC(=O)CCC(=O)N2CCN([C@H]3CC[C@@H](Nc4ncnn5ccc(C(C)C)c45)CC3)CC2)C(C)(C)C)cc1` gave a logD in [1] of 3.1. The Activity in data set [6] and in data set [7] was 0% in each case. For the same compound, the half-maximal inhibitory concentration (IC50) in data set [3] was over 1000 nM; in data set [5], 25 nM.

In turn, `Cc1ncsc1-c1ccc(CNC(=O)[C@@H]2C[C@@H](O)CN2C(=O)[C@@H](NC(=O)COCCOCCOCCOCCOCCOCC(=O)N2CCN([C@H]3CC[C@@H](Nc4ncnn5ccc(C(C)C)c45)CC3)CC2)C(C)(C)C)cc1` displayed a pH-dependent lipophilicity (logD) in data set [1] of 2.8. Also, the Activity in [6] came out at 20%; in data set [7], 43%. In addition, the IC50 was over 10000 nM in [3] and 33 nM in [5].

Consider `CC(=O)N1CCN([C@H]2CC[C@H](Nc3ncnn4ccc(C(C)C)c34)CC2)CC1`, for which the IC50 in data set [5] was 31 nM.

As to `Cc1ncsc1-c1ccc(CNC(=O)[C@@H]2C[C@@H](O)CN2C(=O)[C@@H](NC(=O)COCCOCCOCCOCCNC(=O)CCC(=O)N2CCN([C@H]3CC[C@@H](Nc4ncnn5ccc(C(C)C)c45)CC3)CC2)C(C)(C)C)cc1`, the logD in [1] turned out to be 3. In addition, the Activity in data set [6] and in data set [7] was 0% in each case. The IC50 is over 1000 nM in data set [3] and 19 nM in data set [5].

The compound `CC(C)c1ccn2ncnc(N[C@H]3CC[C@@H](N4CCN(C(=O)CCOCCOCCOCCOCCOCCNc5cccc6c5C(=O)N(C5CCC(=O)NC5=O)C6=O)CC4)CC3)c12` (stereo partly specified) displayed a logD in [1] of 2.1. The Activity was 78% in data set [2] and 49% in data set [4]. The IC50 was over 10000 nM in data set [3] and 33 nM in data set [5].

`CC(C)c1ccn2ncnc(N[C@H]3CC[C@@H](N4CCN(C(=O)CCC(=O)NCCCCNc5cccc6c5C(=O)N(C5CCC(=O)NC5=O)C6=O)CC4)CC3)c12` (stereo partly specified) had a logD in [1] of 2.9. The Activity in data set [2] and in data set [4] was 0% in each case. Moreover, the values for the IC50 in data set [3] and in data set [5] were over 1000 nM and 13 nM, respectively.

`Cc1ncsc1-c1ccc(CNC(=O)[C@@H]2C[C@@H](O)CN2C(=O)[C@@H](NC(=O)CCCNC(=O)CCC(=O)N2CCN([C@H]3CC[C@@H](Nc4ncnn5ccc(C(C)C)c45)CC3)CC2)C(C)(C)C)cc1` registered a logD in data set [1] of 3.7. Besides, the Activity in [6] and in [7] was 0% each time. For the same compound, the IC50 in [3] was over 1000 nM; in [5] it was 15 nM.

In data set [1], `CC(C)c1ccn2ncnc(N[C@H]3CC[C@@H](N4CCN(C(=O)CCC(=O)NCCOCCOCCOCCOCCNc5cccc6c5C(=O)N(C5CCC(=O)NC5=O)C6=O)CC4)CC3)c12` (stereo partly specified) registered a log distribution coefficient (logD) of 2. Further, the Activity in data set [2] came to 85%; in [4] it was 55%. Moreover, the IC50 is over 1000 nM in data set [3] and 22 nM in data set [5].

Take `CC(C)c1ccn2ncnc(N[C@H]3CC[C@@H](N4CCN(C(=O)CCOCCOCCOCCNc5cccc6c5C(=O)N(C5CCC(=O)NC5=O)C6=O)CC4)CC3)c12` (stereo partly specified): in data set [1], the logD was 2.3. The Activity in data set [2] worked out at 24%; in [4], 21%. The IC50 in data set [3] is 7800 nM; in [5], 34 nM.

Take `CC(C)c1ccn2ncnc(N[C@H]3CC[C@@H](N4CCN(C(=O)CCC(=O)NCCCCCCNc5cccc6c5C(=O)N(C5CCC(=O)NC5=O)C6=O)CC4)CC3)c12` (stereo partly specified): the log distribution coefficient (logD) in data set [1] was 3.7. Further, the Activity in [2] and in data set [4] was 0% throughout. The half-inhibitory concentration (IC50) was determined as 2600 nM in data set [3] and 21 nM in data set [5].

In turn, `Cc1ncsc1-c1ccc(CNC(=O)[C@@H]2C[C@@H](O)CN2C(=O)[C@@H](NC(=O)COCCOCCNC(=O)CCC(=O)N2CCN([C@H]3CC[C@@H](Nc4ncnn5ccc(C(C)C)c45)CC3)CC2)C(C)(C)C)cc1` came in with a logD in data set [1] of 3.3. The Activity amounted to 0% in data set [6] and 20% in [7]. In addition, the results for the concentration for half-maximal inhibition (IC50) in [3] and in data set [5] were over 10000 nM and 24 nM, respectively.

Usually logD stands for the decadic logarithm of the distribution of all forms, ionised or not, between an organic phase and buffer at a given pH. For orientation: IC50 means the concentration that inhibits the measured activity by half. One may read the DC50 as the midpoint of the concentration-degradation curve. A word on the Emax: it is the size of the effect at its maximum, as opposed to the concentration needed.

These data come from ChEMBL document CHEMBL4725370, “Discovery of Proteolysis-Targeting Chimera Molecules that Selectively Degrade the IRAK3 Pseudokinase” (J Med Chem, 2020).
